Experiments:
Type in all cases: in vivo
[1] = tested on: ABUTH, Velvetleaf, Abutilon theophrasti, Medic.; test: Postemergence herbicidal evaluation (Example 147); settings: rating scale 0-9, two to three weeks after treatment
Method in brief: (§1)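 Compound is applied postemergence at approximately 0.016–0.032 kg/ha through a nozzle at 40 psi, using 80/20 acetone/water with 1.0% SUN-IT II. Treated seedlings, grown about two weeks beforehand, stay in the greenhouse for two to three weeks before visual 0-9 scoring.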

[2] = tested on: ALOMY, Blackgrass, Alopecurus myosuroides; test: Postemergence herbicidal evaluation (Example 147); settings: rating scale 0-9, two to three weeks after treatment
Method in brief: as §1

[3] = tested on: AMBEL, Ragweed, Common, Ambrosia artemiisifolia, L.; test: Postemergence herbicidal evaluation (Example 147); settings: rating scale 0-9, two to three weeks after treatment
Method in brief: as §1

[4] = tested on: CHEAL, Lambsquarters, Chenopodium album, L. Common; test: Postemergence herbicidal evaluation (Example 147); settings: rating scale 0-9, two to three weeks after treatment
Method in brief: as §1

[5] = tested on: DIGSA, Crabgrass, (Hairy) L, Digitaria sanguinalis, (L)Scop; test: Postemergence herbicidal evaluation (Example 147); settings: rating scale 0-9, two to three weeks after treatment
Method in brief: as §1

[6] = tested on: ECHCG, Barnyardgrass, Echinochloa crusgalli, (L.)Beau; test: Postemergence herbicidal evaluation (Example 147); settings: rating scale 0-9, two to three weeks after treatment
Method in brief: as §1

[7] = tested on: GLXMA, Soybean, Glycine max, (L.) Merr.; test: Postemergence herbicidal evaluation (Example 147); settings: rating scale 0-9, two to three weeks after treatment
Method in brief: as §1

[8] = tested on: IPOHE, Morningglory, Ivyleaf, Ipomoea hederacea, (L)Jacq.; test: Postemergence herbicidal evaluation (Example 147); settings: rating scale 0-9, two to three weeks after treatment
Method in brief: as §1

[9] = tested on: SETVI, Green foxtail, Setaria viridis, (L.)Beau; test: Postemergence herbicidal evaluation (Example 147); settings: rating scale 0-9, two to three weeks after treatment
Method in brief: as §1

[10] = tested on: TRZAW, Winter wheat, Tritium Aestivum, L. (Winter); test: Postemergence herbicidal evaluation (Example 147); settings: rating scale 0-9, two to three weeks after treatment
Method in brief: as §1

[11] = tested on: XANST, Cocklebur, Xanthium strumariam; test: Postemergence herbicidal evaluation (Example 147); settings: rating scale 0-9, two to three weeks after treatment
Method in brief: as §1

[12] = tested on: ZEAMX, Field corn, Zea mays L.; test: Postemergence herbicidal evaluation (Example 147); settings: rating scale 0-9, two to three weeks after treatment
Method in brief: as §1

[13] = tested on: ABUTH, Velvetleaf, Abutilon theophrasti, Medic.; test: Preemergence herbicidal evaluation (Example 148); settings: rating scale 0-9, two to four weeks after treatment
Method in brief: (§2)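 Seeds mixed with potting soil were sown on about one inch of soil in cups, then sprayed preemergence with test compound in aqueous acetone at roughly 0.125 to 0.250 kg per hectare. Plants were grown in the greenhouse and rated visually 2–4 weeks later against a control.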

[14] = tested on: ALOMY, Blackgrass, Alopecurus myosuroides; test: Preemergence herbicidal evaluation (Example 148); settings: rating scale 0-9, two to four weeks after treatment
Method in brief: as §2

[15] = tested on: AMBEL, Ragweed, Common, Ambrosia artemiisifolia, L.; test: Preemergence herbicidal evaluation (Example 148); settings: rating scale 0-9, two to four weeks after treatment
Method in brief: as §2

[16] = tested on: CHEAL, Lambsquarters, Chenopodium album, L. Common; test: Preemergence herbicidal evaluation (Example 148); settings: rating scale 0-9, two to four weeks after treatment
Method in brief: as §2

[17] = tested on: DIGSA, Crabgrass, (Hairy) L, Digitaria sanguinalis, (L)Scop; test: Preemergence herbicidal evaluation (Example 148); settings: rating scale 0-9, two to four weeks after treatment
Method in brief: as §2

[18] = tested on: ECHCG, Barnyardgrass, Echinochloa crusgalli, (L.)Beau; test: Preemergence herbicidal evaluation (Example 148); settings: rating scale 0-9, two to four weeks after treatment
Method in brief: as §2

[19] = tested on: GLXMA, Soybean, Glycine max, (L.) Merr.; test: Preemergence herbicidal evaluation (Example 148); settings: rate 0.125 kg/ha, rating scale 0-9, two to four weeks after treatment
Method in brief: as §2

[20] = tested on: IPOHE, Morningglory, Ivyleaf, Ipomoea hederacea, (L)Jacq.; test: Preemergence herbicidal evaluation (Example 148); settings: rating scale 0-9, two to four weeks after treatment
Method in brief: as §2

[21] = tested on: SETVI, Green foxtail, Setaria viridis, (L.)Beau; test: Preemergence herbicidal evaluation (Example 148); settings: rating scale 0-9, two to four weeks after treatment
Method in brief: as §2

[22] = tested on: TRZAW, Winter wheat, Tritium Aestivum, L. (Winter); test: Preemergence herbicidal evaluation (Example 148); settings: rating scale 0-9, two to four weeks after treatment
Method in brief: as §2

[23] = tested on: XANST, Cocklebur, Xanthium strumariam; test: Preemergence herbicidal evaluation (Example 148); settings: rating scale 0-9, two to four weeks after treatment
Method in brief: as §2

[24] = tested on: ZEAMX, Field corn, Zea mays L.; test: Preemergence herbicidal evaluation (Example 148); settings: rating scale 0-9, two to four weeks after treatment
Method in brief: as §2

For `Cn1c(C(F)(F)F)cc(=O)n(-c2cc(C(=O)NS(=O)(=O)NCc3cccs3)c(Cl)cc2F)c1=O` [Example 77], the “Postemergence herbicidal rating ABUTH” value ([1]; rate 0.016 kg/ha) was 9.0, the “Postemergence herbicidal rating ABUTH” value ([1]; rate 0.032 kg/ha) was 9.0 and the “Postemergence herbicidal rating ALMOY” value ([2]; rate 0.016 kg/ha) was 1.0. For the same compound, the “Postemergence herbicidal rating ALMOY” value ([2]; rate 0.032 kg/ha) was 1.0, the “Postemergence herbicidal rating AMBEL” value ([3]; rate 0.016 kg/ha) was 8.0 and the “Postemergence herbicidal rating AMBEL” value ([3]; rate 0.032 kg/ha) was 8.0. The “Postemergence herbicidal rating CHEAL” value ([4]; rate 0.016 kg/ha) was 6.0, the “Postemergence herbicidal rating CHEAL” value ([4]; rate 0.032 kg/ha) was 7.0 and the “Postemergence herbicidal rating DIGSA” value ([5]; rate 0.016 kg/ha) was 4.0. For the same compound, the “Postemergence herbicidal rating DIGSA” value ([5]; rate 0.032 kg/ha) was 4.0, the “Postemergence herbicidal rating ECHCG” value ([6]; rate 0.016 kg/ha) was 4.0 and the “Postemergence herbicidal rating ECHCG” value ([6]; rate 0.032 kg/ha) was 6.0. For the same compound, the “Postemergence herbicidal rating GLXMA” value ([7]; rate 0.016 kg/ha) was 7.5, the “Postemergence herbicidal rating GLXMA” value ([7]; rate 0.032 kg/ha) was 7.5 and the “Postemergence herbicidal rating IPOHE” value ([8]; rate 0.016 kg/ha) was 9.0. For the same compound, the “Postemergence herbicidal rating IPOHE” value ([8]; rate 0.032 kg/ha) was 9.0, the “Postemergence herbicidal rating SETVI” value ([9]; rate 0.016 kg/ha) was 5.0 and the “Postemergence herbicidal rating SETVI” value ([9]; rate 0.032 kg/ha) was 6.0. For the same compound, the “Postemergence herbicidal rating TRZAW” value ([10]; rate 0.016 kg/ha) was 4.5, the “Postemergence herbicidal rating TRZAW” value ([10]; rate 0.032 kg/ha) was 5.0 and the “Postemergence herbicidal rating XANST” value ([11]; rate 0.016 kg/ha) was 9.0. The “Postemergence herbicidal rating XANST” value ([11]; rate 0.032 kg/ha) was 9.0, the “Postemergence herbicidal rating ZEAMX” value ([12]; rate 0.016 kg/ha) was 6.0 and the “Postemergence herbicidal rating ZEAMX” value ([12]; rate 0.032 kg/ha) was 6.5. For the same compound, the “Preemergence herbicidal rating ABUTH” value ([13]; rate 0.125 kg/ha) was 9.0, the “Preemergence herbicidal rating ABUTH” value ([13]; rate 0.25 kg/ha) was 9.0 and the “Preemergence herbicidal rating ALMOY” value ([14]; rate 0.125 kg/ha) was 0.0. For the same compound, the “Preemergence herbicidal rating ALMOY” value ([14]; rate 0.25 kg/ha) was 0.0, the “Preemergence herbicidal rating AMBEL” value ([15]; rate 0.125 kg/ha) was 9.0 and the “Preemergence herbicidal rating AMBEL” value ([15]; rate 0.25 kg/ha) was 9.0. For the same compound, the “Preemergence herbicidal rating CHEAL” value ([16]; rate 0.125 kg/ha) was 9.0, the “Preemergence herbicidal rating CHEAL” value ([16]; rate 0.25 kg/ha) was 9.0 and the “Preemergence herbicidal rating DIGSA” value ([17]; rate 0.125 kg/ha) was 2.0. The “Preemergence herbicidal rating DIGSA” value ([17]; rate 0.25 kg/ha) was 4.0, the “Preemergence herbicidal rating ECHCG” value ([18]; rate 0.125 kg/ha) was 2.0 and the “Preemergence herbicidal rating ECHCG” value ([18]; rate 0.25 kg/ha) was 3.0. The “Preemergence herbicidal rating GLXMA” value [19] was 1.0, the “Preemergence herbicidal rating IPOHE” value ([20]; rate 0.125 kg/ha) was 7.0 and the “Preemergence herbicidal rating IPOHE” value ([20]; rate 0.25 kg/ha) was 9.0. The “Preemergence herbicidal rating SETVI” value ([21]; rate 0.125 kg/ha) was 2.0, the “Preemergence herbicidal rating SETVI” value ([21]; rate 0.25 kg/ha) was 2.0 and the “Preemergence herbicidal rating TRZAW” value ([22]; rate 0.125 kg/ha) was 0.0. For the same compound, the “Preemergence herbicidal rating TRZAW” value ([22]; rate 0.25 kg/ha) was 0.0, the “Preemergence herbicidal rating XANST” value ([23]; rate 0.125 kg/ha) was 3.0 and the “Preemergence herbicidal rating XANST” value ([23]; rate 0.25 kg/ha) was 8.0. For the same compound, the “Preemergence herbicidal rating ZEAMX” value ([24]; rate 0.125 kg/ha) was 0.0 and the “Preemergence herbicidal rating ZEAMX” value ([24]; rate 0.25 kg/ha) was 1.0.
